Test results as given in US8492106B2, “Identification methods for ergothioneine transporter modulators and therapeutic uses thereof” (Universitat Zu Koln, priority 2004, dated 2013).
Like-named read-outs stand apart in the source and are kept apart here.

How the values were obtained:
ETTh = target: T1, ETTh (Homo sapiens, UniProt Q9H015); experiment: Substrate uptake into 293-FIT-ETTh cells expressing ETTh (LC-MS/MS and radiotracer assays); format: cell-based; conditions: for Km: read-out: Km (affinity of ETTh)
T1 construct: expressed in transfected cells
T1 sequence (Q9H015 1-551): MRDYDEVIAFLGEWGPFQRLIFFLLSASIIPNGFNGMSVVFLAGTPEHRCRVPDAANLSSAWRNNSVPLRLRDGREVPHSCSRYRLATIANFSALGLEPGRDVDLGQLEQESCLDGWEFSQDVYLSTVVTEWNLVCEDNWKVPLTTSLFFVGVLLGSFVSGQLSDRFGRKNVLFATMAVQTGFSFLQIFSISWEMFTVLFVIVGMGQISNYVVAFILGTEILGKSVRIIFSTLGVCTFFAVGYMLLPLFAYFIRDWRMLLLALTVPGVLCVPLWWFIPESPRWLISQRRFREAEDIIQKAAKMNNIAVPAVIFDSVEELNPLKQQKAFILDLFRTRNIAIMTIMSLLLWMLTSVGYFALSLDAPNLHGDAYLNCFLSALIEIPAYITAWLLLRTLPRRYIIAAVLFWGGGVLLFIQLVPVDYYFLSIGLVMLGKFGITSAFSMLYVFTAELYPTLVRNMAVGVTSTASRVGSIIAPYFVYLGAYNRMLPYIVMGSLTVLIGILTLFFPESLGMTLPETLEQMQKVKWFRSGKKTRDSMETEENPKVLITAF
Procedure: Substrate concentration was 10 μmol/l for all LC-MS/MS assays (gamma-butyryl betaine, N-methyl proline (alias hygric acid), hydroxyproline betaine (alias betonicine), proline betaine (alias stachydrine), and ergothioneine) and 0.1 μmol/l for all radiotracer assays.
(§1) FIG. 3: Determination of Km and Vmax of ergiothioneine transport via ETTh. 293-FIT-ETTh (filled circles) or 293-FIT-NT (open circles) cell monolayers were incubated for 1 min at 37° C. with various ET concentrations in KRH buffer. After thorough washing, cells were lysed with 4 mmol/l HClO4. Lysates were analysed for ET content by LC-MS/MS. Each circle represents a single dish. Uptake into control cells was modeled with a straight line through the origin.
The cDNA of ETTh (EMBL/GenBank accession number Y09881) was inserted into the eukaryotic expression vector pcDNA5/FRT/TO (Invitrogen) to yield pcDNA5/FRT/TO/ETTh. This plasmid was cotransfected together with plasmid pOG44 by lipofection with Tfx-50 (Promega) into Flp-In T-REx 293 cells (Invitrogen; referred to as 293-FIT-NT in the remainder). After antibiotic selection with hygromycin B and blasticidin S, the surviving cells, used as a pool and designated as 293-FIT-ETTh, were assayed for ETT transcripts by Northern analysis.
The cell lines 293-FIT-ETTh and 293-FIT-NT (original cell line, not transfected), grown as monolayers in 6 cm diameter polystyrol dishes and induced with 1 μg/ml doxycycline for 20 h, were incubated for 1 min at 37° C. with 2 ml of a mixture of human plasma (50%) and KRH buffer (50%). KRH buffer (Krebs-Ringer-Henseleit) contains 5.6 mM (+)-Glucose, 125 mM NaCl, 4.8 mM KCl, 1.2 mM KH2PO4, 1.2 mM CaCl2, 1.2 mM MgSO4, and 25 mM HEPES-NaOH pH 7.4. The dishes were rinsed 4 times with 3 ml ice-cold KRH and subsequently incubated with 1 ml of 4 mmol/l HClO4 to release the cell contents. 15 μl of lysate were analyzed by LC-MS (ESI, positive mode) using a Thermo Finnigan TSQ Quantum triple quad mass spectrometer equipped with a Waters Atlantis HILIC silica column (length 100 mm, diameter 3 mm, particle size 5 μm). The solvent for isocratic chromatography (flow rate 250 μl/min) was made of methanol (70%) and 0.1% formic acid (30%). Data sets were compared by LC-MS Difference Shading software (see separate patent application).
A series of compounds structurally related to either stachydrine or carnitine, the key substrate of the related OCTN2 transporter was tested, for transport by ETTh. […] LC-MS/MS determines total cellular content of a particular analyte.

[1] = Dog, blood; cited from earlier work
[2] = Ox, blood; cited from earlier work
[3] = Guinea Pig, blood; cited from earlier work
[4] = cited from earlier work
[5] = Rabbit, blood; cited from earlier work
[6] = Cat, blood; cited from earlier work
[7] = Sheep, blood; cited from earlier work
[8] = Man, blood; cited from earlier work
[9] = Pig, blood; cited from earlier work
[10] = target: T2, carnitine transporter OCTN2 from rat (Rattus norvegicus, UniProt O70594); experiment: ET transport by carnitine transporter OCTN2; format: cell-based
T2 sequence (O70594 1-557): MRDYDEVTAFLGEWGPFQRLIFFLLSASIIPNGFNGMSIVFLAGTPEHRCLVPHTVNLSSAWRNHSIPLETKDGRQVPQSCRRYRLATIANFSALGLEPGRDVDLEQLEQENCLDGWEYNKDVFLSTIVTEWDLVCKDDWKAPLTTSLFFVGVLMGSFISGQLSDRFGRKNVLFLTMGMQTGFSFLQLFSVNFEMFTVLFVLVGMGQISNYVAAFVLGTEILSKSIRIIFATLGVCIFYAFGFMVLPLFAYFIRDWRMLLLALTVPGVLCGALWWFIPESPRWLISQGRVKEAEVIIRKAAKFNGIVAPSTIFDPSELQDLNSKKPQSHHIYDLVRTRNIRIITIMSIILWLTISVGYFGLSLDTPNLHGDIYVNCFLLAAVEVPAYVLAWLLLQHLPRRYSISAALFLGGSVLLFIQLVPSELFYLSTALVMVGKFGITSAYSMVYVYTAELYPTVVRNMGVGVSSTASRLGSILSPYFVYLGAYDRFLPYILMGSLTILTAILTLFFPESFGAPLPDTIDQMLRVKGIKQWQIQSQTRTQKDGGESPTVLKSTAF
Text: If the substrate concentration is much smaller than the affinity of the transporter (=Km), then the clearance is directly proportional to the transport efficiency, defined, by analogy to catalytic efficiency for enzymes, as kcat/Km, where kcat is the turnover number of an individual transporter molecule (note that Vmax=kcat*Etotal, where Etotal is the number of transporter molecules).

[11] = Accumulation of ergothioneine in the lens of the eye
[12] = Rat, blood; cited from earlier work
[13] = Fowl, blood; cited from earlier work
293-FIT-NT cells = experiment: ET uptake into control 293-FIT-NT cells (no ETT expression); format: cell-based, human
Procedure: as §1

[14] = in vivo
[15] = 293-FIT-ETTh cells, 1 min at 37° C., KRH buffer, LC-MS/MS
[16] = LC-MS/MS assay, substrate 10 μmol/l, 1 min at 37° C.

Question: For `CC[N+](CC)(CC)CC` [TEA, tetraethyl ammonium], which “transport by ETTh (in words)” value (ETTh; radiotracer assay, substrate 0.1 μmol/l) is on record?
Answer: Its value is “negligible”.

Question: For `C[N+](C)(C)[C@@H](Cc1c[nH]c(=S)[nH]1)C(=O)[O-]` [ergothioneine, 2-mercaptohistidine trimethylbetaine], which Ergothioneine concentration [1] is on record?
Answer: Its Ergothioneine concentration is 3-6 mg/100 ml blood.

Question: And the Ergothioneine concentration [2]?
Answer: Its Ergothioneine concentration is 0.5-2 mg/100 ml blood.

Question: And the Ergothioneine concentration [3]?
Answer: Its Ergothioneine concentration is 1-4 mg/100 ml blood.

Question: And the “concentration in human and mammalian tissue (estimated)” value [4]?
Answer: Its value is 1000 to 2000 µM.

Question: What about the Ergothioneine concentration [5] of the same compound?
Answer: The Ergothioneine concentration was 1-10 mg/100 ml blood.

Question: And the Ergothioneine concentration [6]?
Answer: The Ergothioneine concentration was 0.5-2 mg/100 ml blood.

Question: And the Ergothioneine concentration [7]?
Answer: The Ergothioneine concentration was 2-6 mg/100 ml blood.

Question: What about the Ergothioneine concentration [8] of the same compound?
Answer: Its Ergothioneine concentration is 1-4 mg/100 ml blood.

Question: What about the “true clearance (Vmax divided by Km)” value (ETTh; 293-FIT-ETTh cells) of the same compound?
Answer: The value was 190 μl/min/mg protein.

Question: And the Vmax (ETTh; [15])?
Answer: The Vmax was 4.2 nmol/min/mg protein.

Question: What about the Km (ETTh; [15]) of the same compound?
Answer: The Km was 22 µM.

Question: And the “transport by ETTh (in words)” value (ETTh; [16])?
Answer: Its value is “extremely high transport activity”.

Question: And the “ETTh transports ET better than stachydrine” value (ETTh; transport efficiency, ET versus stachydrine)?
Answer: The value was 10 fold.

Question: What about the Ergothioneine concentration [9] of the same compound?
Answer: The Ergothioneine concentration was 3-27 mg/100 ml blood.

Question: What about the “acceptance as substrate by OCTN2” value [10] of the same compound?
Answer: The value was “did not accept ET as a substrate at all”.

Question: And the “accumulation in the lens of the eye (in words)” value [11]?
Answer: The value was “significant accumulation”.

Question: And the Ergothioneine concentration [12]?
Answer: Its Ergothioneine concentration is 1-6 mg/100 ml blood.

Question: And the Ergothioneine concentration [13]?
Answer: Its Ergothioneine concentration is 2-10 mg/100 ml blood.

Question: And the “slope d of uptake into control cells” value (293-FIT-NT cells; 293-FIT-NT control cells, 1 min at 37° C., KRH buffer)?
Answer: The value was 0.32 μl/min/mg protein.

Question: And the “uptake into cells without expression of ETT (in words)” value (293-FIT-NT cells; without expression of ETT)?
Answer: Its value is “virtually no uptake”.

Question: For `C[N+]1(C)C[C@@H](O)C[C@@H]1C(=O)[O-]` [hydroxyproline betaine], which “transport by ETTh (in words)” value (ETTh; [16]) is on record?
Answer: Its value is “good substrates”.

Question: For `C[N+]1(C)CCC[C@H]1C(=O)[O-]` [stachydrine], which Km (ETTh; [15]) is on record?
Answer: The Km was 300 µM.

Question: What about the “transport by ETTh (in words)” value (ETTh; [16]) of the same compound?
Answer: The value was “accumulated”.

Question: And the “transport by ETTh (in words)” value (ETTh; LC-MS/MS assay, substrate 10 μmol/l, 1 min at 37° C., listed as proline betaine)?
Answer: The value was “good substrates”.

Question: And the plasma levels [14]?
Answer: The plasma levels was “about 10 μmol/l”.
